Results from patent US9789095B2, “Inhibitors of calcium-activated chloride channels” (The Regents of the University of California, priority 2007, dated 2017).

The molecules below were run on calcium-activated chloride channel (CaCC) (assay: YFP fluorescence plate reader iodide influx assay in HT-29 cells (ATP/carbachol)). Conditions: class A aminothiophenes, semi-quantitative.
Assay type: cell-based, human
Description: Screening was performed using a customized screening system (BECKMAN COULTER, Inc., Indianapolis, Ind.) consisting of the SAGIAN Core system integrated with SAMI software, and equipped with an ORCA arm for labware transport, a 96-channel head BIOMEK FX, CO2 incubator, plate washer, bar code reader, delidding station, and two FLUOstar OPTIMA fluorescence plate readers (BMG Labtechnologies, Durham, N.C.), each equipped with syringe pumps and custom excitation/emission filters (500/544 nm; CHROMA, Brattleboro, Vt.).
HT-29 cells expressing YFP-H148Q/I152L were plated in 96-well plates at 70% confluence. Plates were incubated overnight at 37° C., 5% CO2 and then the growth medium was replaced with fresh growth medium. […] YFP fluorescence was measured 1 s before and for 30 s after addition of a PBS-iodide solution (PBS that has 100 mM chloride replaced by iodide) containing carbachol and ATP (100 μM each). Each 96-well plate contained ‘positive’ controls (DMSO vehicle without agonists or test compounds) and ‘negative’ controls (DMSO vehicle with agonists but without test compounds). In some experiments solutions included (individually or in combination): carbachol, ATP, or histamine (at 50, 100, 150 or 200 μM), calcimycin (10 μM), thapsigargin (2 μM) and CFTRinh-172 (20 μM).
Iodide influx (d[I^−]/dt at t=0) was computed from fluorescence time course data by single exponential regression, as described (Ma et al., J. Clin. Invest. 110:1651-8 (2002)). Percentage inhibition was computed as: percentage inhibition=100×(Slopenegative control−Slopetest compound)/(Slopenegative control−Slopepositive control).

In order of falling “% inhibition at 25 μM” value:
1. CCOC(=O)c1c(NC(=O)/C=C/C(=O)O)sc2c1CCC(C(C)(C)C)C2 (stereo not shown) [CaCCinh-A07, (E)-4-(6-tert-butyl-3-(ethoxycarbonyl)-4,5,6,7-tetrahydrobenzo[b]thiophen-2-ylamino)-4-oxobut-2-enoic acid]  98%
2. Cc1ccccc1C(=O)Nc1sc2c(c1C(=O)O)CCC(C(C)(C)C)C2 (stereo not shown) [CaCCinh-A02, 6-tert-butyl-2-(2-methylbenzamido)-4,5,6,7-tetrahydrobenzo[b]thiophene-3-carboxylic acid]  95%
3. CC(C)(C)C1CCc2c(sc(NC(=O)c3ccccc3)c2C(=O)O)C1 (stereo not shown) [CaCCinh-A04, 2-benzamido-6-tert-butyl-4,5,6,7-tetrahydrobenzo[b]thiophene-3-carboxylic acid]  85%
4. COC(=O)c1c(NC(=O)CCC(=O)O)sc2c1CCC(C(C)(C)C)C2 (stereo not shown) [CaCCinh-A11, 4-(6-tert-butyl-3-(methoxycarbonyl)-4,5,6,7-tetrahydrobenzo[b]thiophen-2-ylamino)-4-oxobutanoic acid]  81%
5. CCOC(=O)c1c(NC(=O)C2CCCCC2C(=O)O)sc2c1CCC(C(C)(C)C)C2 (stereo not shown) [CaCCinh-A08, 2-(6-tert-butyl-3-(ethoxycarbonyl)-4,5,6,7-tetrahydrobenzo[b]thiophen-2-ylcarbamoyl)cyclohexanecarboxylic acid]  80%
6. CC(C)(C)C1CCc2c(sc(NC(=O)c3ccccc3Cl)c2C(=O)O)C1 (stereo not shown) [CaCCinh-A05, 6-tert-butyl-2-(2-chlorobenzamido)-4,5,6,7-tetrahydrobenzo[b]thiophene-3-carboxylic acid]  75%
7. CCOC(=O)c1c(NC(=O)CCC(=O)O)sc2c1CCC(C(C)(C)C)C2 (stereo not shown) [CaCCinh-A06, 4-(6-tert-butyl-3-(ethoxycarbonyl)-4,5,6,7-tetrahydrobenzo[b]thiophen-2-ylamino)-4-oxobutanoic acid]  75%
8. CCOC(=O)c1c(NC(=O)C2CCCCC2C(=O)O)sc2c1CCC(C(C)(C)CC)C2 (stereo not shown) [CaCCinh-A10, 2-(3-(ethoxycarbonyl)-6-tert-pentyl-4,5,6,7-tetrahydrobenzo[b]thiophen-2-ylcarbamoyl)cyclohexanecarboxylic acid]  75%
9. CC(C)(C)C1CCc2c(sc(NC(=O)c3cccc(Cl)c3)c2C(=O)O)C1 (stereo not shown) [CaCCinh-A03, 6-tert-butyl-2-(3-chlorobenzamido)-4,5,6,7-tetrahydrobenzo[b]thiophene-3-carboxylic acid]  50%
10. COC(=O)c1c(NC(=O)CCCC(=O)O)sc2c1CCC(C(C)(C)C)C2 (stereo not shown) [CaCCinh-A09, 5-(6-tert-butyl-3-(methoxycarbonyl)-4,5,6,7-tetrahydrobenzo[b]thiophen-2-ylamino)-5-oxopentanoic acid]  45%
11. Cc1cccc(NC(=O)c2c(NC(=O)CCC(=O)O)sc3c2CCC(C(C)(C)C)C3)c1 (stereo not shown) [CaCCinh-A16, 4-(6-tert-butyl-3-(m-tolylcarbamoyl)-4,5,6,7-tetrahydrobenzo[b]thiophen-2-ylamino)-4-oxobutanoic acid]  42%
12. COc1ccc(NC(=O)c2c(NC(=O)CCC(=O)O)sc3c2CCC(C(C)(C)C)C3)cc1 (stereo not shown) [CaCCinh-A18, 4-(6-tert-butyl-3-(4-methoxyphenylcarbamoyl)-4,5,6,7-tetrahydrobenzo[b]thiophen-2-ylamino)-4-oxobutanoic acid]  35%
13. O=C(Nc1sc2c(c1C(=O)O)CCCCC2)c1ccccc1 [CaCCinh-A13, 2-benzamido-5,6,7,8-tetrahydro-4H-cyclohepta[b]thiophene-3-carboxylic acid]  27%
14. COc1cccc(C(=O)Nc2sc3c(c2C(=O)O)CCCCC3)c1 [CaCCinh-A15, 2-(3-methoxybenzamido)-5,6,7,8-tetrahydro-4H-cyclohepta[b]thiophene-3-carboxylic acid]  20%
15. Cc1ccc(C(=O)Nc2sc3c(c2C(=O)O)CCCCC3)cc1 [CaCCinh-A12, 2-(4-methylbenzamido)-5,6,7,8-tetrahydro-4H-cyclohepta[b]thiophene-3-carboxylic acid]  15%
16. Cc1cccc(C(=O)Nc2sc3c(c2C(=O)O)CCCC3)c1 [CaCCinh-A17, 2-(3-methylbenzamido)-4,5,6,7-tetrahydrobenzo[b]thiophene-3-carboxylic acid]  07%

Same assay, conditions: class B aminothiazoles, semi-quantitative

In order of falling “% inhibition at 25 μM” value:
1. CCCc1sc(Nc2ccc(C(=O)O)cc2)nc1-c1ccc(C)cc1C [CaCCinh-B06, 4-(4-(2,4-dimethylphenyl)-5-propylthiazol-2-ylamino)benzoic acid]  100%
2. Cc1ccc(-c2nc(Nc3cccc(C(F)(F)F)c3)sc2CC(=O)O)c(C)c1 [CaCCinh-B08, 2-(4-(2,4-dimethylphenyl)-2-(3-(trifluoromethyl)phenylamino)thiazol-5-yl)acetic acid]  75%
3. Cc1ccc(-c2nc(Nc3ccc(Br)cc3)sc2CC(=O)O)c(C)c1 [CaCCinh-B07, 2-(2-(4-bromophenylamino)-4-(2,4-dimethylphenyl)thiazol-5-yl)acetic acid]  70%
4. Cc1ccc(-c2nc(Nc3ccc(Cl)cc3Cl)sc2CC(=O)O)cc1 [CaCCinh-B04, 2-(2-(2,4-dichlorophenylamino)-4-p-tolylthiazol-5-yl)acetic acid]  65%
5. CC(C)Cc1ccc(Nc2nc(-c3ccc(Oc4ccccc4)cc3)cs2)cc1 [CaCCinh-B09, N-(4-isobutylphenyl)-4-(4-phenoxyphenyl)thiazol-2-amine]  65%
6. CCOc1ccc(Nc2nc(-c3ccc(C)cc3)c(CC(=O)O)s2)cc1 [CaCCinh-B11, 2-(2-(4-ethoxyphenylamino)-4-p-tolylthiazol-5-yl)acetic acid]  65%
7. Cc1ccc(-c2nc(Nc3cccc(Br)c3)sc2CC(=O)O)cc1 [CaCCinh-B03, 2-(2-(3-bromophenylamino)-4-p-tolylthiazol-5-yl)acetic acid]  60%
8. Cc1ccc(-c2nc(Nc3cccc(C(F)(F)F)c3)sc2CC(=O)O)cc1 [CaCCinh-B05, 2-(4-p-tolyl-2-(3-(trifluoromethyl)phenylamino)thiazol-5-yl)acetic acid]  60%
9. FC(F)(F)c1cccc(-c2csc(Nc3ccc(C4CCCCC4)cc3)n2)c1 [CaCCinh-B10, N-(4-cyclohexylphenyl)-4-(3-(trifluoromethyl)phenyl)thiazol-2-amine]  55%
10. Cc1ccc(-c2nc(Nc3ccc(C)c(Cl)c3)sc2CC(=O)O)cc1 [CaCCinh-B02, 2-(2-(3-chloro-4-methylphenylamino)-4-p-tolylthiazol-5-yl)acetic acid]  40%
11. CCNc1nc(-c2ccc(C)cc2)cs1 [CaCCinh-B13, N-ethyl-4-p-tolylthiazol-2-amine]  20%
12. Cc1ccc(-c2nc(NC(=O)c3cccc(C)c3)sc2-c2ccccc2)cc1 [CaCCinh-B12, 3-methyl-N-(5-phenyl-4-p-tolylthiazol-2-yl)benzamide]  03%
